Test results: patent US20210267948A1, “TREATMENT OF CANCER” (CITY OF HOPE, priority 2017, published 2021)

Assays:
MOLT-4 xenograft tumors = test: MOLT-4 mouse xenograft; type: in vivo; details: MOLT-4, oral twice daily 50 and 100 mg/kg, 12 days
Method: FIGS. 12A-12D depict the activity of COH29 in mouse xenografts. Cancer cells were implanted and allowed to grow at the subcutaneous site until the tumor was measurable. Subcutaneous xenograft growth curves for leukemic-(MOLT-4) mice treated for 12 days with oral COH29 in twice-daily dosing at 50 and 100 mg/kg (FIG. 12A) and for ovarian cancer bearing mice (TOV112D) treated for 7 days with 200, 300, or 400 mg/kg of oral COH29 (FIG. 12B) (shown are the average±SDs for 4 animals/group). FIG. 12C depicts the activity of RNR in MOLT-4 tumor xenografts from mice treated with vehicle (solutol-15) or 100 mg/kg of oral COH29 for 12 days. FIG. 12D depicts the effect of oral COH29 on intratumoral dTNP pools from MOLT-4 tumor xenografts.

HCC1937+BRCA1 = test: Cytotoxicity assay, HCC1937+BRCA1; type: cell-based, human; details: 10 μM, 72 h
Method: All cell lines were acquired from the American Type Culture Collection (Manassas, Va., USA). Cells were maintained in RPMI 1640 medium (Mediatech) with 10% fetal bovine serum, 2 mM glutamine, and 100 U of penicillin and 100 μg of streptomycin per ml of medium (Sigma) at 37° C. in 5% CO2. To isolate HCC1937+BRCA1 cells, parental HCC1937 cells were transfected with pcDNA3.1 plasmid expressing full-length BRCA1 cDNA. Stable transfectant clones were selected and used for drug sensitivity assays. For stable transfection, cells at 30-40% confluence were incubated overnight with […] of plasmid DNA, using FUGENE® 6 transfectin reagent (Roche Molecular Biochemical, Monza, Italy) according to the manufacturer's instructions. Cells were then selected in puromycin (1 μg/ml) (Invitrogen Life Technologies, La Jolla, Calif., USA). After 20 to 30 days, viable puromycin-resistant colonies from HCC1937 transfections were expanded and screened. The clones that stably expressed puromycin and retained growth potential were assayed for BRCA1 expression by Western blot analysis. The restoration of BRCA1 expression in the puromycin-resistant cDNA/transfectant cells was evaluated by Western blot analysis.
The MTT cytotoxicity assay was performed by incubating with MTT and monitoring the MTT formazan formed by viable cells with a microplate reader at a wavelength of 560 nm; the survival ratio was determined using the formula: (Atest−Ablank)/(Acontrol−Ablank)×100%. The cytotoxicity was determined in 96-well plates using the semiautomatic fluorescence-based Digital Imaging Microscopy System (DIMSCAN). DIMSCAN uses digital imaging microscopy to quantify viable cells, which selectively accumulate FDA (fluorescein diacetate; Alfa Aesar, Ward Hill, Mass.). DIMSCAN is capable of measuring cytotoxicity over a 4 log dynamic range by quantifying total fluorescence per well (which is proportional to the number of viable cells) after elimination of the background fluorescence by digital thresholding and eosin Y (Mallinckrodt Baker, Center Valley, Pa.) quenching. […]

PARP1 = biological target: T1, PARP1 (Homo sapiens, UniProt P09874); test: PARP1 Chemiluminescent Assay on lysates of treated cells; type: cell-based
T1 construct: endogenous in cells; host or cells: HCC1937, HCC1937+BRCA1, UWB1.289 and UWB1.289+BRCA1 human cancer cells (lysates)
Method: The PARP1 activity was determined using the PARP1 Chemiluminescent Assay Kit (BPS Bioscience, San Diego) according to the manufacturer's protocol. Briefly, the ribosylation reaction was carried out with activated DNA in PARP assay buffer using test inhibitor, positive control, substrate control and blank reactions, for 1 hour at 25° C. Detection was by streptavidin-HRP with chemiluminescent substrate A and B read in a luminometer. NZebrafish (Danio rerio) were obtained from zebrafish Core facility of Taipei Medical University and maintained at 28° C. on a 14 h light/10 h dark cycle. Embryos were incubated at 28° C. and different developmental stages were determined as described (25). Wild-type embryos were treated with different concentrations of HU (0, 5, 10, 20, 50 mM) or COH29 (0, 10, 20, 50, 100 μM) at 20 hpf to evaluate the mutagenic effect. Fifteen embryos were treated per well condition. […] Embryos were observed using an Olympus IX70-FLA inverted fluorescence microscope. Images were taken using SPOT digital camera system (Diagnostic Instruments, Sterling Heights, Mich., USA) and assembled with Image) software (26).
To determine if COH29 inhibited hPARP1, PARP1 activity was examined in lysates of cells treated with or without COH29 for 4 h, 8 h or 24 h.

[1] = HCC1937 lacking BRCA1, 24 h incubation
[2] = UWB1.289 lacking BRCA1, 8 h treatment

T1 sequence (P09874 whole entry): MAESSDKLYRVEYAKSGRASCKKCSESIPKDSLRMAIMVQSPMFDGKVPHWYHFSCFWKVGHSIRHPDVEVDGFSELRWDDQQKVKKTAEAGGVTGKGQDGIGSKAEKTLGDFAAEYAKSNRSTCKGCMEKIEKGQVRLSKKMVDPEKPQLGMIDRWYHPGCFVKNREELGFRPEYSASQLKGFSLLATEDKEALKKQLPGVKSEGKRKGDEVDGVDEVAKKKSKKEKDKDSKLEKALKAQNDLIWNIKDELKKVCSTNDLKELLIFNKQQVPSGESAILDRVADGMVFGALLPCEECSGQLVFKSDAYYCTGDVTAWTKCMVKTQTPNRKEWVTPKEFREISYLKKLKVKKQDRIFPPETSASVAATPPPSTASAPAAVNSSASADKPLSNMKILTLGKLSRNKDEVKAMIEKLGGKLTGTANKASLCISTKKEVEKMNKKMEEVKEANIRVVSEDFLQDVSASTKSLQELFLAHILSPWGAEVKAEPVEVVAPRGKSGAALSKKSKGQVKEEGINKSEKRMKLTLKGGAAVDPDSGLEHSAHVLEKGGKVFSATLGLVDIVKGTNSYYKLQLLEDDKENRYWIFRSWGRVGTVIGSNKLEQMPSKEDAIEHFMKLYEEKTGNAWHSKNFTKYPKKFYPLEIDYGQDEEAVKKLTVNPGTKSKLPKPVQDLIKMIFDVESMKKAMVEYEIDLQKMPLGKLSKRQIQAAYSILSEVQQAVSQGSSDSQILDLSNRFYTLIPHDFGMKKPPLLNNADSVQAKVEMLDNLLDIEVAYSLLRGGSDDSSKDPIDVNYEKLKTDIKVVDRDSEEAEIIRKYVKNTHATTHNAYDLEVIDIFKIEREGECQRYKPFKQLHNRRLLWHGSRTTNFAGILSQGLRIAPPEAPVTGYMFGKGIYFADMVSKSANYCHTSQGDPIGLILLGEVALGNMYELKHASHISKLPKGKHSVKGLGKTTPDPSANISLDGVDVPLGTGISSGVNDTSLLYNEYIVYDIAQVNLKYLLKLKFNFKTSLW

## O=C(Nc1nc(-c2ccc(O)c(O)c2)c(-c2ccccc2)s1)c1ccc(O)c(O)c1 [COH29, N-(4-(3,4-dihydroxyphenyl)-5-phenylthiazol-2-yl)-3,4-dihydroxybenzamide]
MOLT-4 xenograft tumors
  xenograft tumor growth: inhibited
HCC1937+BRCA1; HCC1937+BRCA1 transfected with BRCA1 siRNA
  cells survived: 53%
HCC1937+BRCA1; HCC1937+BRCA1 transfected with control siRNA
  cells survived: 72%
PARP1; HCC1937+BRCA1, 24 h incubation
  PARP1 activity decreased by: 12.66%
  PARP1 activity, COH29 treated: 2041097 cps
PARP1; [1]
  PARP1 activity decreased by: 41.08%
  PARP1 activity, COH29 treated: 427851 cps
PARP1; UWB1.289+BRCA1, 8 h treatment
  PARP1 activity rose by: 46.31%
  PARP1 activity, COH29 treated: 2129944 cps
PARP1; [2]
  PARP1 activity decreased by: 31.79%
  PARP1 activity, COH29 treated: 774611 cps
